According to ChEMBL document CHEMBL3804811 (J Med Chem, 2016):
Values after ≈ are worked out from the molar mass of the structure shown.

What was measured:
[1] = biological target: ALK tyrosine kinase receptor (Homo sapiens, UniProt Q9UM73)
Description: Inhibition of recombinant ALK (unknown origin) in presence of gamma33-ATP

[2] = Antiproliferative activity against human KARPAS299 cells incubated for 72 hrs by cell titer-glo assay; conditions: KARPAS-299, 72 h
[3] = biological target: Insulin receptor (Homo sapiens, UniProt P06213); assay: Inhibition of IR (unknown origin) in presence of gamma33-ATP
[4] = Tmax in Harlan nu/nu mouse at 10 mg/kg, po administered as single dose by LC-MS/MS analysis; assay type: ADME, organism-based; conditions: in vivo
[5] = Intrinsic clearance in human liver microsomes at […] preincubated for 5 mins followed by NADPH addition measured after 5 to 30 mins by LC-MS/MS analysis; assay type: ADME; conditions: read-out: CLH
[6] = Oral bioavailability in Harlan nu/nu mouse at 10 mg/kg administered as single dose by LC-MS/MS analysis; assay type: ADME, organism-based; conditions: in vivo
[7] = Cmax in Harlan nu/nu mouse at 10 mg/kg, po administered as single dose by LC-MS/MS analysis; assay type: ADME, organism-based; design: dose 10 mg/kg, route oral; conditions: in vivo
[8] = Volume of distribution at steady state in Harlan nu/nu mouse at 10 mg/kg, iv administered as single dose by LC-MS/MS analysis; conditions: in vivo
[9] = Solubility of compound at pH 7 buffer; assay type: physicochemical
[10] = Half life in Harlan nu/nu mouse at 10 mg/kg, po administered as single dose by LC-MS/MS analysis; assay type: ADME, organism-based; conditions: in vivo
[11] = Clearance in Harlan nu/nu mouse at 10 mg/kg, iv administered as single dose by LC-MS/MS analysis; assay type: ADME, organism-based; conditions: in vivo
[12] = AUC (infinity) in Harlan nu/nu mouse at 10 mg/kg, iv administered as single dose by LC-MS/MS analysis; assay type: ADME, organism-based; design: dose 10 mg/kg, time infinity, route intravenous; conditions: in vivo
[13] = AUC (infinity) in Harlan nu/nu mouse at 10 mg/kg, po administered as single dose by LC-MS/MS analysis; assay type: ADME, organism-based; design: dose 10 mg/kg, route oral, time infinity; conditions: in vivo
[14] = Apparent permeability from basolateral to apical side in human Caco2 cells at 2.5 mg/ml after 2 hrs by reversed-phase HPLC method; assay type: ADME, cell-based; conditions: Caco-2
[15] = Intrinsic clearance in rat hepatocytes at […] after 10 to 90 mins by LC-MS/MS analysis; assay type: ADME, cell-based, Hepatocyte; conditions: read-out: CLH
[16] = Half life in Harlan nu/nu mouse at 10 mg/kg, iv administered as single dose by LC-MS/MS analysis; assay type: ADME, organism-based; conditions: in vivo
[17] = Apparent permeability from apical to basolateral side in human Caco2 cells at 2.5 mg/ml after 2 hrs by reversed-phase HPLC method; assay type: ADME, cell-based; conditions: Caco-2
[18] = Cmax in Harlan nu/nu mouse at 10 mg/kg, iv administered as single dose by LC-MS/MS analysis; assay type: ADME, organism-based; design: dose 10 mg/kg, route intravenous; conditions: in vivo

Chain of ALK tyrosine kinase receptor (Q9UM73 whole entry): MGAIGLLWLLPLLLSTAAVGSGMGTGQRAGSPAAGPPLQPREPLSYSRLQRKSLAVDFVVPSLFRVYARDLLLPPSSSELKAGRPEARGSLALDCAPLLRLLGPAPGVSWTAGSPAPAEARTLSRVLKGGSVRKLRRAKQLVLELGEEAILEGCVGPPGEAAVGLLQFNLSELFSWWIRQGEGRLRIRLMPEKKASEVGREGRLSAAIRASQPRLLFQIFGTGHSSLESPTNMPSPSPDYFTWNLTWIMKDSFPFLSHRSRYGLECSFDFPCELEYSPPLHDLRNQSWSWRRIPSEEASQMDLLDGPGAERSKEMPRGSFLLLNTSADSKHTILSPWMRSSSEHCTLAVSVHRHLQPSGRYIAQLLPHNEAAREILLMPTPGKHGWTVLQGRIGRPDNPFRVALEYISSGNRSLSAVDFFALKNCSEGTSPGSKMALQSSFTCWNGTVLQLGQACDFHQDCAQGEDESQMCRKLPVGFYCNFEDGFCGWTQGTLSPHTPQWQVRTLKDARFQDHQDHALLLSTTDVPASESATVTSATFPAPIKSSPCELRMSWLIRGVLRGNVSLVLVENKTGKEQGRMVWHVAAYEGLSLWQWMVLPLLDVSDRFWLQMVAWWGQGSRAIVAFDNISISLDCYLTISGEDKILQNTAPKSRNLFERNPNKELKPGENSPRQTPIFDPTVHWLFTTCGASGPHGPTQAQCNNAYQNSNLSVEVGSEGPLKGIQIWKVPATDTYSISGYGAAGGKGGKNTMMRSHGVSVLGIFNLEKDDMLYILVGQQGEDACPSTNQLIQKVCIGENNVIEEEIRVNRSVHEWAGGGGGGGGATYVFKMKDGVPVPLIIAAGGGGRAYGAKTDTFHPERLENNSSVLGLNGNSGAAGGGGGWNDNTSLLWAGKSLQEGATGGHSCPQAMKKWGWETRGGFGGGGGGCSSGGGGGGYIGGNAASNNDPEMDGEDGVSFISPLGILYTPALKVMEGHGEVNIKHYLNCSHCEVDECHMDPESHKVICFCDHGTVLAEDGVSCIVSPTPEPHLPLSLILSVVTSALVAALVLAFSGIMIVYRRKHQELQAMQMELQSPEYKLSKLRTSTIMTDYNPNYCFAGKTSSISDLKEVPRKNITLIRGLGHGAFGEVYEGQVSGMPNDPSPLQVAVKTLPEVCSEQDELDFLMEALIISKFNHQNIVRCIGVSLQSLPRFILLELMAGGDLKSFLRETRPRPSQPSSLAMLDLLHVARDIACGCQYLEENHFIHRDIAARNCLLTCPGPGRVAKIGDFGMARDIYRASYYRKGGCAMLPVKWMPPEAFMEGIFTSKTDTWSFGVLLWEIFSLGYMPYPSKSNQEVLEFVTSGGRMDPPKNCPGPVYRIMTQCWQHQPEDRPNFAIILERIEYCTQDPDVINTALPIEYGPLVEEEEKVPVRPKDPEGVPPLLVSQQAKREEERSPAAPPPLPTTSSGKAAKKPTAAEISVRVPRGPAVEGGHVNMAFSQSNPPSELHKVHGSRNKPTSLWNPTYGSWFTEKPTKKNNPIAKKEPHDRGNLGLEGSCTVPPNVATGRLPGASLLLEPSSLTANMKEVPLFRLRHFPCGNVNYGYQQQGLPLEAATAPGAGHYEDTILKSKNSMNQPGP
Chain of Insulin receptor (P06213 28-758 limits assumed): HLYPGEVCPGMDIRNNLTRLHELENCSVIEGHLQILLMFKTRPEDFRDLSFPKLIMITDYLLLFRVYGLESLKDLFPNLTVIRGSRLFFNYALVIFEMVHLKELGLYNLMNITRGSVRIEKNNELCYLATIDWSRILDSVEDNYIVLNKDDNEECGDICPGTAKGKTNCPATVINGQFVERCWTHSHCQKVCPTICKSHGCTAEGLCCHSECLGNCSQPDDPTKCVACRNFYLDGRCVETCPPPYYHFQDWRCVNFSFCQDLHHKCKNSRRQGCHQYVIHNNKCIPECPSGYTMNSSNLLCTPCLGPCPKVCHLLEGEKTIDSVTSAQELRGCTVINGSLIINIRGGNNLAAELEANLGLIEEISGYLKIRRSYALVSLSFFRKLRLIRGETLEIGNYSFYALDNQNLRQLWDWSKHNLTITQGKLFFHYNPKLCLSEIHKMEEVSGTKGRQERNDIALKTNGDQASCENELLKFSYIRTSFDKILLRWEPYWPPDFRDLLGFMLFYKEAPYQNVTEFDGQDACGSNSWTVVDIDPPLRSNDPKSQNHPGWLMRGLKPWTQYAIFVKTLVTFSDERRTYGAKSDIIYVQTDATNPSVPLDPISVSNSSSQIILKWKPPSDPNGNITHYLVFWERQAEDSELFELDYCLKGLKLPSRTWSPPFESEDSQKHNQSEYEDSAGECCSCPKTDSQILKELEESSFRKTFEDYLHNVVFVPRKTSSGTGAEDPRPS
Chain of Insulin receptor (P06213 763-1382 limits assumed): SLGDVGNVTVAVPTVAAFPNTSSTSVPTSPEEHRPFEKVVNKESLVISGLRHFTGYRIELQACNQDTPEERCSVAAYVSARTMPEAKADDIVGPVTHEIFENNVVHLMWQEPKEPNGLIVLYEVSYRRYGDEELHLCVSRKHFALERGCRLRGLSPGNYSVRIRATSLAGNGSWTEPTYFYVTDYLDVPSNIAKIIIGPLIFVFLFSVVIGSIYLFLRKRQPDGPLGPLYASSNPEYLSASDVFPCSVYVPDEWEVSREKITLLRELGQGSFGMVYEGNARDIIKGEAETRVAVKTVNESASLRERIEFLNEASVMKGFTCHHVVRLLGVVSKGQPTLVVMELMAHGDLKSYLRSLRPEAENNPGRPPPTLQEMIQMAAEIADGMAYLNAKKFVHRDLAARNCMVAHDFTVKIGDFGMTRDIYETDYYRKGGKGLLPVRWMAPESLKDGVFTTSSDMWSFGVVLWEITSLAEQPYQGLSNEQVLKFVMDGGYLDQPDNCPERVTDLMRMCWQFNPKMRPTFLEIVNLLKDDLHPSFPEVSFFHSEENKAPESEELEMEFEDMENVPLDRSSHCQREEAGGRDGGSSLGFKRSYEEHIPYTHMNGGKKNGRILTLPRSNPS

SMILES	IC50 [1] [nM]	IC50 [2] [nM]	IC50 [3] [nM]	Tmax [4] [h]	CLint scaled [5] [mL/min/kg]	bioavailability [6] [%]	Cmax [7] [µM]	Vd [8] [L/kg]	solubility [9] [µM]	half-life [10] [h]	clearance [11] [mL/min/kg]	AUC(0-inf) [12] [µM·h]	AUC(0-inf) [13] [µM·h]	Papp B→A at 2 h, 2.5 mg/ml [14] [×10⁻⁶ cm/s]	CLint scaled [15] [mL/min/kg]	half-life [16] [h]	Papp A→B at 2 h, 2.5 mg/ml [17] [×10⁻⁶ cm/s]	Cmax [18] [µM]
CN1CCN(c2ccc(C(=O)Nc3n[nH]c4ccc(Cc5cccc(F)c5)cc34)c(NC3CCOCC3)c2)CC1	30	18	427															
CN1CCN(c2ccc(C(=O)Nc3n[nH]c4ccc(Cc5cc(F)cc(F)c5)cc34)c(NC3CCCCC3)c2)CC1	560	609	3820															
COCCNc1cc(N2CCN(C)CC2)ccc1C(=O)Nc1n[nH]c2ccc(Cc3cc(F)cc(F)c3)cc12	210	243	1760															
O=C(Nc1n[nH]c2ccc(Cc3cc(F)cc(F)c3)cc12)c1ccc(N2CCNCC2)cc1NC1CCOCC1	3	13	41	6	7.5	2.9	0.081	1.4	103 (≈ 56.3 µg/mL)	9.63	7.01	42.2	1.33	4.5	52	4.76	0.6	40.5
CN1CCN(c2ccc(C(=O)Nc3n[nH]c4ccc(Cc5cc(F)cc(F)c5)cc34)c(NCc3ccccc3)c2)CC1	378	1260	3690															
CN(C)CCN(C)C(=O)c1ccc(C(=O)Nc2n[nH]c3ccc(Cc4cc(F)cc(F)c4)cc23)c(NC2CCOCC2)c1	15	50	457		57			4.41	51 (≈ 30.1 µg/mL)		38.8	7.86		19.8	42	2.83	2.7	10.3
Cc1ccc(F)cc1Cc1ccc2[nH]nc(NC(=O)c3ccc(N4CCN(C)CC4)cc3NC3CCOCC3)c2c1	181	851	823															
C[C@@H](c1cc(F)cc(F)c1)c1ccc2[nH]nc(NC(=O)c3ccc(N4CCN(C)CC4)cc3NC3CCOCC3)c2c1	19	16	189															
CN1CCC(Nc2cc(N3CCN(C)CC3)ccc2C(=O)Nc2n[nH]c3ccc(Cc4cc(F)cc(F)c4)cc23)CC1	15	438	330														1.5	
COC[C@@H](C)Nc1cc(N2CCN(C)CC2)ccc1C(=O)Nc1n[nH]c2ccc(Cc3cc(F)cc(F)c3)cc12	72	74	1070															
CN1CCN(c2ccc(C(=O)Nc3n[nH]c4ccc(Cc5cc(F)cc(F)c5)cc34)cc2)CC1	73	253	1810															
CN1CCC(Oc2ccc(C(=O)Nc3n[nH]c4ccc(Cc5cc(F)cc(F)c5)cc34)c(NC3CCOCC3)c2)CC1	9	43	196	6	12	29.3	0.8	2.62	59 (≈ 34 µg/mL)	4.08	8.16	33.1	11	2	49	4.94	0.3	6.93
CN1CCN(c2ccc(C(=O)Nc3n[nH]c4ccc(Cc5cc(F)cc(F)c5)cc34)c(Nc3ccccc3)c2)CC1	684	991	9870															
C[C@H](c1cc(F)cc(F)c1)c1ccc2[nH]nc(NC(=O)c3ccc(N4CCN(C)CC4)cc3NC3CCOCC3)c2c1	59	41	1160															
CN1CCN(c2ccc(C(=O)Nc3n[nH]c4ccc(Cc5cc(F)cc(F)c5)cc34)c(N[C@H]3CC[C@@H](O)CC3)c2)CC1	98	162	707															
CN1CCN(c2ccc(C(=O)Nc3n[nH]c4ccc(Cc5cc(F)cc(F)c5)cc34)c(NCCF)c2)CC1	14	49	462	4.33	24	99	1.88	4.76	16 (≈ 8.36 µg/mL)	9.86	11.7	24.7	31.5	1.5	18	5.92	2.4	7.58
CN1CCN(c2ccc(C(=O)Nc3n[nH]c4ccc(Cc5ccccc5)cc34)c(NC3CCOCC3)c2)CC1	106	182	1490															
COCCCNc1cc(N2CCN(C)CC2)ccc1C(=O)Nc1n[nH]c2ccc(Cc3cc(F)cc(F)c3)cc12	135	194	1190															
CN1CCN(c2ccc(C(=O)Nc3n[nH]c4ccc(Cc5cc(F)cc(F)c5)cc34)c(N)c2)CC1	67	214	1300															
CN1CCN(c2ccc(C(=O)Nc3n[nH]c4ccc(Cc5cc(F)cc(F)c5)cc34)c(N[C@H]3CC[C@H](O)CC3)c2)CC1	10	68	189	1	25	7.3	0.36	3.02	7 (≈ 4.02 µg/mL)		21.3	13.1	1.25	5.1	45	3.01	1.8	7.06
COCC(COC)Nc1cc(N2CCN(C)CC2)ccc1C(=O)Nc1n[nH]c2ccc(Cc3cc(F)cc(F)c3)cc12	99	340	1640															
CN1CCN(c2ccc(C(=O)Nc3n[nH]c4ccc(Cc5cc(F)cc(F)c5)cc34)c(NCCO)c2)CC1	26	118	906															
CN1CCN(c2ccc(C(=O)Nc3n[nH]c4ccc(Cc5cc(F)ccc5F)cc34)c(NC3CCOCC3)c2)CC1	38	49	170															
CN1CCN(c2ccc(C(=O)Nc3n[nH]c4ccc(Cc5cc(F)cc(F)c5)cc34)c(NCC3CN(C)C3)c2)CC1	67	386	353															
O=C(Nc1n[nH]c2ccc(Cc3cc(F)cc(F)c3)cc12)c1ccc(CN2CCCCC2)cc1NC1CCOCC1	18	38	653	0.83	40	18	0.36	2.63	84 (≈ 47 µg/mL)	2.25	32.1	7.97	1.51	1.9	229	1.52	1.1	5.69
